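These data come from cells grown in 96-well plates and exposed to compound for 48 hours at five concentrations. At the GI50, growth is halved.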 Active and inactive are the calls of the source. No stated cut-off is given here; in the data, active = GI50 up to about 1.1 µM and inactive = higher.
Columns and labels:
Assay in all cases: DTP human tumour cell line panel, 48 h
A549 = test system: A549
MDA-MB-435 = test system: MDA-MB-435
RPMI-8226 = test system: RPMI-8226
KM12 = test system: KM12
ACHN = test system: ACHN
SW-620 = test system: SW-620
HCT-116 = test system: HCT-116
HCT-15 = test system: HCT-15
SN12C = test system: SN12C
IGROV-1 = test system: IGROV-1
SK-MEL-5 = test system: SK-MEL-5
M14 = test system: M14
NCI-H23 = test system: NCI-H23
MDA-MB-231 = test system: MDA-MB-231
HOP-62 = test system: HOP-62
OVCAR-4 = test system: OVCAR-4
CCRF-CEM = test system: CCRF-CEM
UACC-62 = test system: UACC-62
HOP-92 = test system: HOP-92

Compound | GI50 (A549) | GI50 (MDA-MB-435) | GI50 (RPMI-8226) | GI50 (KM12) | GI50 (ACHN) | GI50 (SW-620) | GI50 (HCT-116) | GI50 (HCT-15) [µM] | GI50 (SN12C) | GI50 (IGROV-1) | GI50 (SK-MEL-5) | GI50 (M14) | GI50 (NCI-H23) | GI50 (MDA-MB-231) | GI50 (HOP-62) | GI50 (OVCAR-4) | GI50 (CCRF-CEM) | GI50 (UACC-62) | GI50 (HOP-92)
O=C1N/C(=N/N=C\c2ccccc2)N/C1=C/c1ccc(Cl)cc1 | 25.6 µM (inactive) | 33.3 µM (inactive) | 20 µM (inactive) | 27.1 µM (inactive) | 13.8 µM (inactive) | 30.6 µM (inactive) | 26.9 µM (inactive) | 15.3 | 23.2 µM (inactive) | 14.6 µM (inactive) | 19.3 µM (inactive) | 37.4 µM (inactive) | 19 µM (inactive) | 29.3 µM (inactive) | 17.1 µM (inactive) | 12.8 µM (inactive) | – | – | –
C=CCOCn1cc(F)c(=O)[nH]c1=O | > 100 µM (inactive) | > 100 µM (inactive) | > 100 µM (inactive) | > 100 µM (inactive) | > 100 µM (inactive) | > 100 µM (inactive) | > 100 µM (inactive) | > 100 | > 100 µM (inactive) | > 100 µM (inactive) | > 100 µM (inactive) | > 100 µM (inactive) | > 100 µM (inactive) | > 100 µM (inactive) | > 100 µM (inactive) | – | > 100 µM (inactive) | > 100 µM (inactive) | –
C=C1CC[C@H]2C(=O)OC(c3ccoc3)C[C@]2(C)C/C=C\C=C/1C(=O)OC (some centres undefined) | > 25 µM (inactive) | – | – | > 25 µM (inactive) | > 25 µM (inactive) | > 25 µM (inactive) | > 25 µM (inactive) | > 25 | > 25 µM (inactive) | > 25 µM (inactive) | > 25 µM (inactive) | > 25 µM (inactive) | 11.4 µM (inactive) | > 25 µM (inactive) | > 25 µM (inactive) | > 25 µM (inactive) | – | > 25 µM (inactive) | > 25 µM (inactive)
O=C(Sc1c(-c2ccccc2)c(=O)n(-c2ccccc2)c(=S)n1-c1ccccc1)c1ccccc1 | > 100 µM (inactive) | 93.3 µM (inactive) | 41.8 µM (inactive) | > 100 µM (inactive) | > 100 µM (inactive) | 28.6 µM (inactive) | 56 µM (inactive) | 60.7 | > 100 µM (inactive) | > 100 µM (inactive) | 33.9 µM (inactive) | 61.1 µM (inactive) | > 100 µM (inactive) | – | > 100 µM (inactive) | > 100 µM (inactive) | 15.8 µM (inactive) | 33.5 µM (inactive) | 32.1 µM (inactive)
C=CCN(c1cc(OC)c2[nH]c(C(=O)O)c(C)c2c1[N+](=O)[O-])S(C)(=O)=O | > 100 µM (inactive) | > 100 µM (inactive) | > 100 µM (inactive) | > 100 µM (inactive) | > 100 µM (inactive) | > 100 µM (inactive) | > 100 µM (inactive) | > 100 | 54.3 µM (inactive) | > 100 µM (inactive) | > 100 µM (inactive) | > 100 µM (inactive) | > 100 µM (inactive) | > 100 µM (inactive) | > 100 µM (inactive) | > 100 µM (inactive) | > 100 µM (inactive) | > 100 µM (inactive) | –
CC(=O)O[C@H]1CC[C@@]2(C)C(=CC[C@H]3C4=CC=C(C(C)=O)[C@@]4(C)CCC32)C1 (some centres undefined) | 36.4 µM (inactive) | – | 15.3 µM (inactive) | 19.9 µM (inactive) | 34.1 µM (inactive) | 20.9 µM (inactive) | 15.6 µM (inactive) | 29.8 | 34.7 µM (inactive) | 56.2 µM (inactive) | 17.7 µM (inactive) | 33.7 µM (inactive) | – | – | > 100 µM (inactive) | 40.6 µM (inactive) | 21.4 µM (inactive) | 18.8 µM (inactive) | 27.6 µM (inactive)
CN(C)c1nc2nonc2nc1Nc1ccccc1 | > 100 µM (inactive) | – | > 100 µM (inactive) | – | > 100 µM (inactive) | > 100 µM (inactive) | > 100 µM (inactive) | > 100 | > 100 µM (inactive) | > 100 µM (inactive) | > 100 µM (inactive) | > 100 µM (inactive) | > 100 µM (inactive) | > 100 µM (inactive) | > 100 µM (inactive) | – | > 100 µM (inactive) | > 100 µM (inactive) | > 100 µM (inactive)
CCOC(=O)c1ccc2c(=O)n3c(C(=O)OCC)ccc3c(=O)n12 | > 100 µM (inactive) | > 100 µM (inactive) | > 100 µM (inactive) | > 100 µM (inactive) | > 100 µM (inactive) | > 100 µM (inactive) | > 100 µM (inactive) | > 100 | > 100 µM (inactive) | > 100 µM (inactive) | > 100 µM (inactive) | > 100 µM (inactive) | > 100 µM (inactive) | > 100 µM (inactive) | > 100 µM (inactive) | > 100 µM (inactive) | > 100 µM (inactive) | > 100 µM (inactive) | –
CC1(C)CC(=O)c2c(nc3c(ccc4ccccc43)c2-c2ccc(NC(=O)CCCCCCCCC(=O)Nc3ccc(-c4c5c(nc6c4ccc4ccccc46)CC(C)(C)CC5=O)cc3)cc2)C1 | > 100 µM (inactive) | > 100 µM (inactive) | > 100 µM (inactive) | > 100 µM (inactive) | > 100 µM (inactive) | > 100 µM (inactive) | > 100 µM (inactive) | – | > 100 µM (inactive) | 0.017 µM (active) | > 100 µM (inactive) | > 100 µM (inactive) | – | > 100 µM (inactive) | > 100 µM (inactive) | – | > 100 µM (inactive) | – | –
